Organism: Rattus norvegicus
Test: Open TG-GATES - Regimen: Daily Repeat
Format: toxicity, organism-based, Sprague-Dawley
Parameters: regimen Daily Repeat, gender Male, age 6 weeks
Conditions: in vivo, po, 3 mg/kg, route gavage, dose level Low; for APTT / Bas / Eos / Fbg / Hb / Ht / Lym / MCH / MCHC / MCV / Mono / Neu / PT / Plat / RBC / Ret / WBC: tissue Blood; for KIDNEY_L / KIDNEY_R / KIDNEY_TOTAL: tissue Kidney; for LIVER: tissue Liver; for A/G / ALP / ALT / AST / BUN / CRE / Ca / Cl / DBIL / GLC / IP / K / LDH / Na / PL / RALB / TBIL / TC / TG / TP / gamma-GTP: tissue Plasma

C=CCO [ALLYL ALCOHOL] showed a TERMINAL_BW (72 h, time 3 day) of 238.5 g, an APTT (72 h, time 3 day) of 20.1 s and a Bas (72 h, time 3 day) of 0%. For the same molecule, the Eos (72 h, time 3 day) was 1.2%, the Fbg (72 h, time 3 day) was 228.4 mg/dL and the Hb (72 h, time 3 day) was 13.8 g/dL. It also gave a Ht (72 h, time 3 day) of 40%, a Lym (72 h, time 3 day) of 77.8% and an MCH (72 h, time 3 day) of 20.8 pg. For the same molecule, the MCHC (72 h, time 3 day) was 34.5%, the MCV (72 h, time 3 day) was 60.4 fL and the Mono (72 h, time 3 day) was 2.8%. It also gave a Neu (72 h, time 3 day) of 17.8%, a PT (72 h, time 3 day) of 11.6 s and a Plat (72 h, time 3 day) of 135.9 x10_4/uL. It also gave an RBC (72 h, time 3 day) of 662 x10_4/ul, a Ret (72 h, time 3 day) of 5.2% and a WBC (72 h, time 3 day) of 117.9 x10_2/uL. It also gave a KIDNEY_L (72 h, time 3 day) of 1 g, a KIDNEY_R (72 h, time 3 day) of 1 g and a KIDNEY_TOTAL (72 h, time 3 day) of 2 g. For the same molecule, the LIVER (72 h, time 3 day) was 11.5 g, the A/G (72 h, time 3 day) was 1.6 and the ALP (72 h, time 3 day) was 1089.8 IU/L. It also gave an ALT (72 h, time 3 day) of 37.6 IU/L, an AST (72 h, time 3 day) of 63.8 IU/L and a BUN (72 h, time 3 day) of 16.2 mg/dL. It also gave a CRE (72 h, time 3 day) of 0.5 mg/dL, a Ca (72 h, time 3 day) of 10.8 mg/dL and a Cl (72 h, time 3 day) of 103.2 meq/L. The DBIL (72 h, time 3 day) was 0.076 mg/dL, the GLC (72 h, time 3 day) was 225.8 mg/dL and the IP (72 h, time 3 day) was 7.1 mg/dL. For the same molecule, the K (72 h, time 3 day) was 4.3 meq/L, the LDH (72 h, time 3 day) was 204.6 IU/L and the Na (72 h, time 3 day) was 140.4 meq/L. It also gave a PL (72 h, time 3 day) of 153 mg/dL, an RALB (72 h, time 3 day) of 3.4 g/dL and a TBIL (72 h, time 3 day) of 0.1 mg/dL. For the same molecule, the TC (72 h, time 3 day) was 79.2 mg/dL, the TG (72 h, time 3 day) was 91.6 mg/dL and the TP (72 h, time 3 day) was 5.6 g/dL. The gamma-GTP (72 h, time 3 day) was 0.6 IU/L, the TERMINAL_BW ([…], time 7 day) was 274.1 g and the TERMINAL_BW ([…], time 14 day) was 304.7 g. The TERMINAL_BW ([…], time 28 day) was 380.5 g, the APTT ([…], time 7 day) was 19.5 s and the Bas ([…], time 7 day) was 0%. The Eos ([…], time 7 day) was 1%, the Fbg ([…], time 7 day) was 220.8 mg/dL and the Hb ([…], time 7 day) was 13.7 g/dL. It also gave a Ht ([…], time 7 day) of 40.3%, a Lym ([…], time 7 day) of 80.6% and an MCH ([…], time 7 day) of 20.5 pg. The MCHC ([…], time 7 day) was 34%, the MCV ([…], time 7 day) was 60.4 fL and the Mono ([…], time 7 day) was 2.6%. For the same molecule, the Neu ([…], time 7 day) was 15.8%, the PT ([…], time 7 day) was 11.9 s and the Plat ([…], time 7 day) was 135 x10_4/uL. For the same molecule, the RBC ([…], time 7 day) was 667.2 x10_4/ul, the Ret ([…], time 7 day) was 5.1% and the WBC ([…], time 7 day) was 128.3 x10_2/uL. It also gave an APTT ([…], time 14 day) of 20.1 s, a Bas ([…], time 14 day) of 0% and an Eos ([…], time 14 day) of 1.4%. It also gave a Fbg ([…], time 14 day) of 225.8 mg/dL, a Hb ([…], time 14 day) of 14.5 g/dL and a Ht ([…], time 14 day) of 42%. The Lym ([…], time 14 day) was 85.4%, the MCH ([…], time 14 day) was 20.3 pg and the MCHC ([…], time 14 day) was 34.6%. For the same molecule, the MCV ([…], time 14 day) was 58.7 fL, the Mono ([…], time 14 day) was 2.4% and the Neu ([…], time 14 day) was 10.6%. For the same molecule, the PT ([…], time 14 day) was 12 s, the Plat ([…], time 14 day) was 113.9 x10_4/uL and the RBC ([…], time 14 day) was 715.2 x10_4/ul. It also gave a Ret ([…], time 14 day) of 3.5%, a WBC ([…], time 14 day) of 110.3 x10_2/uL and an APTT ([…], time 28 day) of 20.8 s. The Bas ([…], time 28 day) was 0%, the Eos ([…], time 28 day) was 1% and the Fbg ([…], time 28 day) was 216.8 mg/dL. It also gave a Hb ([…], time 28 day) of 15.2 g/dL, a Ht ([…], time 28 day) of 43.8% and a Lym ([…], time 28 day) of 80%. The MCH ([…], time 28 day) was 19.3 pg, the MCHC ([…], time 28 day) was 34.7% and the MCV ([…], time 28 day) was 55.5 fL. The Mono ([…], time 28 day) was 2.2%, the Neu ([…], time 28 day) was 16% and the PT ([…], time 28 day) was 12 s. For the same molecule, the Plat ([…], time 28 day) was 106.9 x10_4/uL, the RBC ([…], time 28 day) was 787.6 x10_4/ul and the Ret ([…], time 28 day) was 2.7%. It also gave a WBC ([…], time 28 day) of 103.8 x10_2/uL, a KIDNEY_L ([…], time 7 day) of 1.1 g and a KIDNEY_R ([…], time 7 day) of 1.1 g. It also gave a KIDNEY_TOTAL ([…], time 7 day) of 2.2 g, a KIDNEY_L ([…], time 14 day) of 1.2 g and a KIDNEY_R ([…], time 14 day) of 1.1 g. It also gave a KIDNEY_TOTAL ([…], time 14 day) of 2.3 g, a KIDNEY_L ([…], time 28 day) of 1.3 g and a KIDNEY_R ([…], time 28 day) of 1.4 g. For the same molecule, the KIDNEY_TOTAL ([…], time 28 day) was 2.7 g, the LIVER ([…], time 7 day) was 13 g and the LIVER ([…], time 14 day) was 13 g. For the same molecule, the LIVER ([…], time 28 day) was 15.8 g, the A/G ([…], time 7 day) was 1.6 and the ALP ([…], time 7 day) was 883.8 IU/L. It also gave an ALT ([…], time 7 day) of 31.2 IU/L, an AST ([…], time 7 day) of 61.4 IU/L and a BUN ([…], time 7 day) of 16.2 mg/dL. It also gave a CRE ([…], time 7 day) of 0.4 mg/dL, a Ca ([…], time 7 day) of 10.9 mg/dL and a Cl ([…], time 7 day) of 101.6 meq/L. For the same molecule, the DBIL ([…], time 7 day) was 0.088 mg/dL, the GLC ([…], time 7 day) was 221.4 mg/dL and the IP ([…], time 7 day) was 6.9 mg/dL. It also gave a K ([…], time 7 day) of 4.1 meq/L, an LDH ([…], time 7 day) of 192 IU/L and a Na ([…], time 7 day) of 141 meq/L. The PL ([…], time 7 day) was 145.6 mg/dL, the RALB ([…], time 7 day) was 3.5 g/dL and the TBIL ([…], time 7 day) was 0.1 mg/dL. The TC ([…], time 7 day) was 70.4 mg/dL, the TG ([…], time 7 day) was 120.6 mg/dL and the TP ([…], time 7 day) was 5.8 g/dL. For the same molecule, the gamma-GTP ([…], time 7 day) was 0.8 IU/L, the A/G ([…], time 14 day) was 1.5 and the ALP ([…], time 14 day) was 736.6 IU/L. For the same molecule, the ALT ([…], time 14 day) was 39 IU/L, the AST ([…], time 14 day) was 60.2 IU/L and the BUN ([…], time 14 day) was 16.2 mg/dL. The CRE ([…], time 14 day) was 0.4 mg/dL, the Ca ([…], time 14 day) was 10.6 mg/dL and the Cl ([…], time 14 day) was 102.6 meq/L. It also gave a DBIL ([…], time 14 day) of 0.07 mg/dL, a GLC ([…], time 14 day) of 222.2 mg/dL and an IP ([…], time 14 day) of 6.3 mg/dL. For the same molecule, the K ([…], time 14 day) was 3.6 meq/L, the LDH ([…], time 14 day) was 214.8 IU/L and the Na ([…], time 14 day) was 141.2 meq/L. For the same molecule, the PL ([…], time 14 day) was 143 mg/dL, the RALB ([…], time 14 day) was 3.5 g/dL and the TBIL ([…], time 14 day) was 0.1 mg/dL. For the same molecule, the TC ([…], time 14 day) was 74.8 mg/dL, the TG ([…], time 14 day) was 86.6 mg/dL and the TP ([…], time 14 day) was 5.9 g/dL. For the same molecule, the gamma-GTP ([…], time 14 day) was 1.2 IU/L, the A/G ([…], time 28 day) was 1.2 and the ALP ([…], time 28 day) was 620 IU/L. For the same molecule, the ALT ([…], time 28 day) was 35.8 IU/L, the AST ([…], time 28 day) was 57.8 IU/L and the BUN ([…], time 28 day) was 15.2 mg/dL. The CRE ([…], time 28 day) was 0.5 mg/dL, the Ca ([…], time 28 day) was 10.4 mg/dL and the Cl ([…], time 28 day) was 102.8 meq/L. For the same molecule, the DBIL ([…], time 28 day) was 0.076 mg/dL, the GLC ([…], time 28 day) was 218.2 mg/dL and the IP ([…], time 28 day) was 5.8 mg/dL. It also gave a K ([…], time 28 day) of 3.7 meq/L, an LDH ([…], time 28 day) of 210.8 IU/L and a Na ([…], time 28 day) of 139.8 meq/L. For the same molecule, the PL ([…], time 28 day) was 138.6 mg/dL, the RALB ([…], time 28 day) was 3.4 g/dL and the TBIL ([…], time 28 day) was 0.1 mg/dL. The TC ([…], time 28 day) was 65.8 mg/dL, the TG ([…], time 28 day) was 114.4 mg/dL and the TP ([…], time 28 day) was 6.2 g/dL. The gamma-GTP ([…], time 28 day) was 0.6 IU/L.
